Experimental data as given in patent US8883856B2, “Compositions and methods for the treatment of inflammatory diseases using topoisomerase inhibitors” (priority 2000, dated 2014).
Like-named read-outs stand apart in the source and are kept apart here.

What was measured:
neutrophils = test: Cytoplasmic DNA fragmentation in neutrophils (Cell death detection ELISA); assay type: cell-based, human
Text: The inflammation associated with many forms of arthritis is thought to arise from the presence of large numbers of immune cells, such as neutrophils, in the synovial joints of humans. The extended inflammation associated with crystal induced arthritis arises from the interaction of neutrophils with crystals in the synovial joint. One reason the extended duration of the inflammation in this disease may be due to the inhibition of neutrophil apoptosis by crystals. This inhibition may result in the neutrophils remaining in the joint for extended periods. Compounds that overcome this crystal induced suppression of neutrophil apoptosis therefore allow the more rapid clearance of these cells from the joint with the appropriate abatement of inflammation. The process of apoptosis involves the endonuclease driven cleavage of DNA into fragments which may be visualized as a ladder of bands in an agarose gel electrophoresis experiment. Other assays that may be used include caspase 3 quantitation or measurements of cytoplasmic DNA concentration. […] Agents that inhibit caspase activation levels or reduce cytoplasmic DNA are pro-survival (potentially inflammatory) and agents that promote are pro-apoptotic and anti-inflammatory. The use of these methods and their role in neutrophil affected inflammation is described in detail in Tudan et al. J Rheumatol. 27 p 2463-72. 2000.
Methods: Agarose gel banding/laddering of 180 base pairs: Neutrophils were separated from fresh human blood by standard methods (dextran sedimentation and ficoll paque centrifugation) and suspended in buffer at a concentration of 1×10^6 cells/ml. The cells were then incubated with crystals of calcium pyrophosphate dihydrate (CPPD) for 1 hours at 37° C. The cells were then incubated with or without camptothecin (0.1 uM) for 4 hours at 37° C. Neutrophil aliquots (1×10^6 cells) from different conditions were resuspended in 480 μl of lysis buffer (0.6% SDS, 10 mM Tris, 1 mM EDTA (pH 7.0)) and after vigorous mixing were allowed to sit on ice for 20 min after addition of 120 μl of 5M NaCl. In caspase 3 and DNA fragmentation assays a milder detergent (Triton) was used to lyse only the plasma membrane of the cells so that cytoplasmic contents (caspase 3 or DNA fragments) could be assayed. Samples were sedimented at 14,000 rpm at 4° C. for 20 min. The pellet was dried and resuspended in phenol:chloroform. Four hundred fifty μl of the upper phase was added to a new tube, which was then charged with 950 μl of […] and held at −20° C. for 10 min. The DNA was sedimented at 14,000 rpm (4° C.) and carefully washed in 75% ethanol without disturbing the pellet. The DNA was dried at 37° C. and then resuspended in 20 μl sample buffer (50% TBE with 1 μl of 1 ng/ml RNase A (Pharmacia)). […]

surgical adhesions = assay type: in vivo; conditions: for mean surgical adhesion score: 2.5% loaded crosslinked HA film, 8 days, scale 0 (no adhesions) to 3 (inseparable without cutting), control film mean 2.33; for surgical adhesion formation, in words: drug-loaded crosslinked HA films (camptothecin 2.5%, doxorubicin 2.5%, beta-lapachone 5%, curcumin 10%)
Method: The rat caecal-sidewall adhesion model was used to test efficacy of crosslinked hyaluroinc acid (HA) polymeric films loaded with one of the following compounds; camptothecin 2.5% loading (w/w to polymer), curcumin 10%, doxorubicin 2.5%, beta-lapachone at 5% or unloaded-no-drug control. Films of 2-2.5 cm^2 were prepared with each drug by the method described in example 10. ETO sterilized, and divided in half at the time of surgical implantation. Sham surgeries omitted the application of HA film as separate controls.
Sprague Dawley rats, 15 male and 15 female, weighing 250-400 g were anaesthetized with Halothane (5%) and maintained, by nose cone, on 1.5-2% Halothane. Surgeries were conducted under sterile conditions. The abdomen was shaved, scrubbed with an antiseptic wash, and opened at the linea alba with a 3 cm incision. A region of the abdominal cavity immediately opposite the large bowel was isolated with bowel clamps, and a #11 scalpel blade was used to score a section of the transversus muscle, describing a rectangle 1×1.5 cm. The muscle was stripped from the peritoneal sidewall with forceps, and minor bleeding was arrested by tamponade. The large bowel was then externalized with sterile swabs, and caecal contents evacuated into the large bowel. Both surfaces of the caecum were stroked, 45 times on each side, with a #10 scalpel blade to produce erythema and punctated bleeding. Each stroke spanned the caecal diameter (approximately 1 cm), and extended along 1.5 cm of the caecal extremity. In only one case did this abrasion procedure cause sustained bleeding requiring ligation. Following 90 blade strokes, the integrity of the tissue was confirmed, and caecum and large bowel were replaced in the pelvis.
The film was laid over the rectangular sidewall abrasion (except in the case of sham surgeries), covering the area of damaged tissue. The abraded caecum, relocated in its previous orientation, was than overlaid such that the entire sidewall wound and film were covered by it. Four tacking sutures were placed at the outer extremities of the abraded area of the caecum securing it to the intact peritoneal sidewall immediately outside the rectangular wound area. The abdomen was closed in two layers, and antibiotics administered intramuscularly before the animal regained consciousness.
. Adhesions over, and adjacent to the caecum were rated according to the following findings: 0: No adhesions connecting caecum to sidewall wound; 1: Filmy or stranded were separable by blunt dissection; 2: Cohesive adhesions attaching the caecum to the sidewall were separable by aggressive blunt dissection; 3: Adhesions inseparable without cutting, or without tearing/damaging caecum. Fractions were assigned where a variety of ratings seemed applicable.

CC[C@@]1(O)C(=O)OCc2c1cc1n(c2=O)Cc2cc3ccccc3nc2-1 [camptothecin]
cytoplasmic DNA fragments in neutrophils (neutrophils): increased the cytoplasmic levels of DNA fragments
mean surgical adhesion score (surgical adhesions): 0.95
toxicity of drug-loaded hyaluronic acid films (surgical adhesions; films applied to abraded surgical site, rats): no associated toxicity

COc1cc([C@@H]2c3cc4c(cc3[C@@H](O[C@@H]3O[C@@H]5CO[C@@H](C)O[C@H]5[C@H](O)[C@H]3O)[C@H]3COC(=O)[C@H]23)OCO4)cc(OC)c1O [etoposide]
cytoplasmic DNA fragments in neutrophils (neutrophils): significant increase in cytoplasmic DNA
surgical adhesion formation, in words (surgical adhesions; rats): inhibition of adhesion formation occurs
toxicity of drug-loaded hyaluronic acid films (surgical adhesions; rat, in vivo): did not induce any toxic side effects

CC1(C)CCC2=C(O1)c1ccccc1C(=O)C2=O [beta-lapachone]
toxicity of drug-loaded hyaluronic acid films (surgical adhesions; rat, in vivo): did not induce any toxic side effects

COc1cccc2c1C(=O)c1c(O)c3c(c(O)c1C2=O)C[C@@](O)(C(=O)CO)C[C@@H]3O[C@H]1C[C@H](N)[C@H](O)[C@H](C)O1 [doxorubicin]
cytoplasmic DNA fragments in neutrophils (neutrophils): significant increase in cytoplasmic DNA
mean surgical adhesion score (surgical adhesions): 1.24
surgical adhesion formation, in words (surgical adhesions; rats): inhibition of adhesion formation occurs
surgical adhesion formation, in words (surgical adhesions; rats, listed as dodxorubicin): major inhibition of surgical adhesion formation
toxicity of drug-loaded hyaluronic acid films (surgical adhesions; rat, in vivo): did not induce any toxic side effects
